ChEMBL document CHEMBL1201862, “PubChem BioAssay data set” (2004)
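Assay format: 96-well plates, 48-hour exposure. GI50 marks 50% less growth.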 Calls of active or inactive are those of the source. Rule as the data show it: active = GI50 up to about 1.1 µM and inactive = higher.

Experiments:
Assay in all cases: inhibition of tumour cell growth, NCI panel, 48 h
SK-MEL-5 = tested on: SK-MEL-5
K562 = tested on: K562
A549 = tested on: A549
NCI/ADR-RES = tested on: NCI/ADR-RES
Malme-3M = tested on: Malme-3M
OVCAR-5 = tested on: OVCAR-5
SK-MEL-28 = tested on: SK-MEL-28
SW-620 = tested on: SW-620
MCF7 = tested on: MCF7
SF-295 = tested on: SF-295
NCI-H226 = tested on: NCI-H226
OVCAR-3 = tested on: OVCAR-3
UO-31 = tested on: UO-31
SK-MEL-2 = tested on: SK-MEL-2
DU-145 = tested on: DU-145
NCI-H522 = tested on: NCI-H522
HL-60 = tested on: HL-60
LOX IMVI = tested on: LOX IMVI
OVCAR-8 = tested on: OVCAR-8

Compound | GI50 (SK-MEL-5) | GI50 (K562) | GI50 (A549) | GI50 (NCI/ADR-RES) | GI50 (Malme-3M) | GI50 (OVCAR-5) | GI50 (SK-MEL-28) | GI50 (SW-620) | GI50 (MCF7) | GI50 (SF-295) | GI50 (NCI-H226) | GI50 (OVCAR-3) | GI50 (UO-31) | GI50 (SK-MEL-2) | GI50 (DU-145) | GI50 (NCI-H522) | GI50 (HL-60) | GI50 (LOX IMVI) | GI50 (OVCAR-8)
O=C(/C=C/c1ccc(O)c(O)c1)OCCCc1ccccc1 | 13.2 µM (inactive) | 21.3 µM (inactive) | 14.3 µM (inactive) | 8.39 µM (inactive) | 12.1 µM (inactive) | 18.4 µM (inactive) | 15.3 µM (inactive) | 12.6 µM (inactive) | 12 µM (inactive) | 16 µM (inactive) | 16 µM (inactive) | 1.71 µM (inactive) | 4.95 µM (inactive) | 17.5 µM (inactive) | 14.1 µM (inactive) | 0.851 µM (active) | 1.07 µM (active) | 12.3 µM (inactive) | 
S=C(Nc1ccc2c(c1)oc1ccccc12)c1cccs1 | > 100 µM (inactive) |  | 66.7 µM (inactive) | > 100 µM (inactive) |  | > 100 µM (inactive) | > 100 µM (inactive) | > 100 µM (inactive) | 24.1 µM (inactive) | 16.6 µM (inactive) | > 100 µM (inactive) | 23 µM (inactive) | > 100 µM (inactive) | > 100 µM (inactive) | 40.8 µM (inactive) | 20.8 µM (inactive) | > 100 µM (inactive) | 7.73 µM (inactive) | 18.7 µM (inactive)
O=C1O/C(=C\c2ccccc2)N(c2ccccc2)C1=O | > 100 µM (inactive) | > 100 µM (inactive) | > 100 µM (inactive) | > 100 µM (inactive) |  | > 100 µM (inactive) | > 100 µM (inactive) | > 100 µM (inactive) | 51.8 µM (inactive) |  | > 100 µM (inactive) | > 100 µM (inactive) | > 100 µM (inactive) | > 100 µM (inactive) | > 100 µM (inactive) | > 100 µM (inactive) | > 100 µM (inactive) | > 100 µM (inactive) | > 100 µM (inactive)
COC(C)(C)CCc1[nH]c2ccccc2c1CC(=O)NCCc1cncn1C | > 100 µM (inactive) | > 100 µM (inactive) | > 100 µM (inactive) | > 100 µM (inactive) | > 100 µM (inactive) | > 100 µM (inactive) | > 100 µM (inactive) | > 100 µM (inactive) | > 100 µM (inactive) |  | > 100 µM (inactive) | > 100 µM (inactive) | > 100 µM (inactive) | > 100 µM (inactive) | > 100 µM (inactive) | > 100 µM (inactive) | > 100 µM (inactive) | > 100 µM (inactive) | > 100 µM (inactive)
OC1NC2Nc3ccccc3NC2NC1O (configuration not stated) | > 100 µM (inactive) | > 100 µM (inactive) | > 100 µM (inactive) | > 100 µM (inactive) | > 100 µM (inactive) | > 100 µM (inactive) | > 100 µM (inactive) | > 100 µM (inactive) | > 100 µM (inactive) | > 100 µM (inactive) | > 100 µM (inactive) | > 100 µM (inactive) |  | > 100 µM (inactive) | > 100 µM (inactive) | > 100 µM (inactive) | > 100 µM (inactive) | > 100 µM (inactive) | > 100 µM (inactive)
O=C1C/C(=C\c2ccccc2)C(=O)c2ccccc2N1 | 20.3 µM (inactive) |  | 25.5 µM (inactive) | 23.6 µM (inactive) | 17.5 µM (inactive) | 20 µM (inactive) | 29.5 µM (inactive) | 19.5 µM (inactive) | 81.7 µM (inactive) | 17.4 µM (inactive) | 24.3 µM (inactive) | 25 µM (inactive) |  | 28.5 µM (inactive) | 32.5 µM (inactive) | 22.9 µM (inactive) | 20.8 µM (inactive) | 20.6 µM (inactive) | 18.8 µM (inactive)
CC(Br)CN1CCOCC1 (configuration not stated) | > 100 µM (inactive) | 50 µM (inactive) | > 100 µM (inactive) | > 100 µM (inactive) | > 100 µM (inactive) | > 100 µM (inactive) | > 100 µM (inactive) | > 100 µM (inactive) | > 100 µM (inactive) |  | > 100 µM (inactive) | > 100 µM (inactive) | > 100 µM (inactive) | > 100 µM (inactive) | > 100 µM (inactive) | > 100 µM (inactive) | 10.5 µM (inactive) | > 100 µM (inactive) | > 100 µM (inactive)
O=C1/C(=C\c2ccc(Cl)cc2Cl)Sc2scc(-c3ccc(O)c(O)c3)[n+]21 | 7.98 µM (inactive) |  | 16.9 µM (inactive) | 15.1 µM (inactive) |  | 16.4 µM (inactive) | 15.9 µM (inactive) | 14 µM (inactive) | 16.2 µM (inactive) | 17.4 µM (inactive) | 15.5 µM (inactive) | 6.47 µM (inactive) | 13 µM (inactive) | 11.5 µM (inactive) | 18.3 µM (inactive) | 16.5 µM (inactive) | 8.77 µM (inactive) | 16.4 µM (inactive) | 17.2 µM (inactive)
CCCCCCc1ccc(C(=O)NO)cc1 | 47.1 µM (inactive) | 24.5 µM (inactive) | 33.8 µM (inactive) | 15.3 µM (inactive) |  | 75 µM (inactive) | 56.5 µM (inactive) | 64.4 µM (inactive) | 59.3 µM (inactive) | 40.6 µM (inactive) | 24.4 µM (inactive) | 30.3 µM (inactive) | 15.7 µM (inactive) | 44.9 µM (inactive) | 24.8 µM (inactive) | 11.3 µM (inactive) | 16.5 µM (inactive) | 17.2 µM (inactive) | 13.1 µM (inactive)
COC(=O)C1[C@H](C(=O)OC)C1(Br)CBr (some centres not stated) | > 100 µM (inactive) | > 100 µM (inactive) | > 100 µM (inactive) | > 100 µM (inactive) |  | > 100 µM (inactive) | > 100 µM (inactive) | > 100 µM (inactive) | > 100 µM (inactive) | > 100 µM (inactive) | > 100 µM (inactive) | > 100 µM (inactive) | > 100 µM (inactive) | > 100 µM (inactive) | > 100 µM (inactive) | 8.95 µM (inactive) | > 100 µM (inactive) | > 100 µM (inactive) | > 100 µM (inactive)
Nc1ncnc2c1nc(-c1ccccc1)n2C1OC(CO)C(O)C1O (configuration not stated) | > 100 µM (inactive) | > 100 µM (inactive) | > 100 µM (inactive) | > 100 µM (inactive) |  | > 100 µM (inactive) | > 100 µM (inactive) | > 100 µM (inactive) | > 100 µM (inactive) | > 100 µM (inactive) | > 100 µM (inactive) | > 100 µM (inactive) | > 100 µM (inactive) | > 100 µM (inactive) | > 100 µM (inactive) | > 100 µM (inactive) | > 100 µM (inactive) | > 100 µM (inactive) | > 100 µM (inactive)
COc1ccc(-c2cc(=O)c3ccc(O)cc3o2)cc1OC | 15.2 µM (inactive) | 30 µM (inactive) | 38.5 µM (inactive) | 34.9 µM (inactive) | 67.1 µM (inactive) | > 100 µM (inactive) | 71.9 µM (inactive) | 37.8 µM (inactive) | 25.8 µM (inactive) | 31.3 µM (inactive) | > 100 µM (inactive) | 57.3 µM (inactive) |  | > 100 µM (inactive) | 48 µM (inactive) | 16.6 µM (inactive) | 23.5 µM (inactive) | 33.5 µM (inactive) | 37.4 µM (inactive)
